This passage reports IC50 results from ChEMBL document CHEMBL3638701, “Inhibitors of protein kinases” (2015).

The target of assay [1] is Cyclin-dependent kinase 9 (Homo sapiens, UniProt P50750). Kind of assay: (§1) In Vitro Kinase Inhibition Assay: In vitro kinase assay analysis may be performed using standard techniques described in the art. These techniques are also used by commercial services providers in order to offer in vitro kinase activity assay services, e.g. the assays offered by Millipore Inc. (worldwide website www(dot)millipore.com), ProQinase GmbH (worldwide website www(dot)proqinase.de) and others. All kinase assays were performed in 96-well FlashPlates from Perkin Elmer/NEN (Boston, Mass., USA) in a 50ul reaction volume. The reaction mixture was pipetted in four steps in the following order: 20ul of assay buffer (standard buffer),5ul of ATP solution (in H2O, 5 ul of test compound (in 10% DMSO), 10ul of substrate/10ul of enzyme solution (premixed)The assay for all enzymes contained 60 mM HEPES-NaOH (pH 7.5), 3 mM MgCl2, 3 mM MnCl2, 3uM Na-Orthovanadate, 1.2 mM DTT, 50 ug/ml PEG2000, 1 uM [33P]-ATP (approx. 5x1005 cpm per well).
Chain of Cyclin-dependent kinase 9 (P50750 whole entry): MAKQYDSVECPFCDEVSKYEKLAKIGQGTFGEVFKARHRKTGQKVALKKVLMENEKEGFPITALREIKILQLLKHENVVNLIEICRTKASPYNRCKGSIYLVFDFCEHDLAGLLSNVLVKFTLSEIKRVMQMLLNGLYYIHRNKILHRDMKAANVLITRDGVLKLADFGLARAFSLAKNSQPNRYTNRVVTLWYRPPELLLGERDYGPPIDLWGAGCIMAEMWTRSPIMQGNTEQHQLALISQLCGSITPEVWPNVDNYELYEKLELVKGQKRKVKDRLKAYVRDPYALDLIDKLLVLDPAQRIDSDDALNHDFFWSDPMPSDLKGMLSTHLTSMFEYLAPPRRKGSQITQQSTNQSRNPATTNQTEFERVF

Assay [2] has as its target Cyclin-dependent kinase 5 (Homo sapiens, UniProt Q00535). Described as §1.
Assay [3] concerns the target Glycogen synthase kinase-3 beta (Homo sapiens, UniProt P49841). Described as §1.
The target in assay [4] is Cyclin-dependent kinase 6 (Homo sapiens, UniProt Q00534). Described as §1.
Chain of Cyclin-dependent kinase 6 (Q00534 whole entry): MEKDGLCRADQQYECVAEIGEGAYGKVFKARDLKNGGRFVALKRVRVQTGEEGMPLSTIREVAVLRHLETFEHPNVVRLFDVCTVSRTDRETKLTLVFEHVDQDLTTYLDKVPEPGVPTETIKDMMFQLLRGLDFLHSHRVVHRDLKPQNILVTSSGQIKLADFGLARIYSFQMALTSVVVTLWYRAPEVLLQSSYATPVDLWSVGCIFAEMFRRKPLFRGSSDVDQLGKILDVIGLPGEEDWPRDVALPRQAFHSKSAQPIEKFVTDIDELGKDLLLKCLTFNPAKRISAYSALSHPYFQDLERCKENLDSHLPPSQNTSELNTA
Assay [5] concerns the target Cyclin-dependent kinase 2 (Homo sapiens, UniProt P24941). The description is as §1.
The target of assay [6] is Interleukin-1 receptor-associated kinase 1 (Homo sapiens, UniProt P51617). The description is as §1.
Chain of Interleukin-1 receptor-associated kinase 1 (P51617 whole entry): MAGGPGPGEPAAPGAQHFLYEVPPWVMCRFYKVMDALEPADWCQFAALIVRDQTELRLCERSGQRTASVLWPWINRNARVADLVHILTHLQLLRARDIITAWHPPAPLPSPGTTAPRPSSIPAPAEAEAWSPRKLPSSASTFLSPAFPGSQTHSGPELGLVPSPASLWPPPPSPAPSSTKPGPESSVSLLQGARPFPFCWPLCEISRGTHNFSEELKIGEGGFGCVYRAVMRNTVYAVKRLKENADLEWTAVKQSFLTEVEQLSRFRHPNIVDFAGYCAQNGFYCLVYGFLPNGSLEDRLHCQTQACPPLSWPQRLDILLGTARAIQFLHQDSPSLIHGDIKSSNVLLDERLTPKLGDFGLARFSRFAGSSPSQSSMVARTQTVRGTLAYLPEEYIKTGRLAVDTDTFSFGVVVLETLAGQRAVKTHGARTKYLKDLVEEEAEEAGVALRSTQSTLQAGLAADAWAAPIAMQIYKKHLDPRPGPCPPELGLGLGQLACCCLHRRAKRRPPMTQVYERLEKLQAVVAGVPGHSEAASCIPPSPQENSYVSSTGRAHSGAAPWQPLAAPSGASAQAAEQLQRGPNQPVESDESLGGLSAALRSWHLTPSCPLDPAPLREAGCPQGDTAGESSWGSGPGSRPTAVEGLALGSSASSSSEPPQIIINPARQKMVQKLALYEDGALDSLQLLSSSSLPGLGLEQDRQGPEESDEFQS
Assay [7] deals with Cyclin-dependent kinase 7 (Homo sapiens, UniProt P50613). The assay is described as §1.
Chain of Cyclin-dependent kinase 7 (P50613 whole entry): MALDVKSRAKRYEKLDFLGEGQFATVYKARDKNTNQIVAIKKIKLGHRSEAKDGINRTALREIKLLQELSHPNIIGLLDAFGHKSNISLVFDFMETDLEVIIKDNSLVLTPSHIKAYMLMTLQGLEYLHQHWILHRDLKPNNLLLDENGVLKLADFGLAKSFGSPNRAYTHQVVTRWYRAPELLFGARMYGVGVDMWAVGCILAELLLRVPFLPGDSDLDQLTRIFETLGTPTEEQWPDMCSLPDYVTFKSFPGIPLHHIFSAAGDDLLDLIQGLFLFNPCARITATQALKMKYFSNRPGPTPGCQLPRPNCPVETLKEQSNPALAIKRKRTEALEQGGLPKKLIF
In assay [8] the target is Cyclin-dependent kinase 3 (Homo sapiens, UniProt Q00526). Described as §1.
Chain of Cyclin-dependent kinase 3 (Q00526 whole entry): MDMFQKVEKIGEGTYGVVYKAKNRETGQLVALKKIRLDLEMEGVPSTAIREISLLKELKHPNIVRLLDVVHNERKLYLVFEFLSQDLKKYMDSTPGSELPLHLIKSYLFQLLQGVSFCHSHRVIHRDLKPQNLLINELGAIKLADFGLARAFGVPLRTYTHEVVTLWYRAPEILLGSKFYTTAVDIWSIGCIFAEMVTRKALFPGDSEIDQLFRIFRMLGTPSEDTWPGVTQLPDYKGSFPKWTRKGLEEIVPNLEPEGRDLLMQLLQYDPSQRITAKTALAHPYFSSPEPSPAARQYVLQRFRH
In assay [9] the target is Glycogen synthase kinase-3 alpha (Homo sapiens, UniProt P49840). The assay is described as §1.
Chain of Glycogen synthase kinase-3 alpha (P49840 whole entry): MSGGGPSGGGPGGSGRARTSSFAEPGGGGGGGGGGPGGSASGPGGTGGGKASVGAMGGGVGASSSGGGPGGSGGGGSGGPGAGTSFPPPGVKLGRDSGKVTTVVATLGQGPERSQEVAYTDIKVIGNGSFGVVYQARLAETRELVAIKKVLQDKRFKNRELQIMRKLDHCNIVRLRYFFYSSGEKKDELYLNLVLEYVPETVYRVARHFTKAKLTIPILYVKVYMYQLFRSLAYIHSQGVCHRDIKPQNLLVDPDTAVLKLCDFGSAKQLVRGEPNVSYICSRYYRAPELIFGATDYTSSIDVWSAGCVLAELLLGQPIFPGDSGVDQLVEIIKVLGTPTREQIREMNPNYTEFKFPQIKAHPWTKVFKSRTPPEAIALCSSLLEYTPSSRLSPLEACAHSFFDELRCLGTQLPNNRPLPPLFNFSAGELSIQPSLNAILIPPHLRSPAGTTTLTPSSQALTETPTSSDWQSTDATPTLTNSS
The target in assay [10] is Cyclin-dependent kinase 1 (Homo sapiens, UniProt P06493). The assay is described as §1.
Chain of Cyclin-dependent kinase 1 (P06493 whole entry): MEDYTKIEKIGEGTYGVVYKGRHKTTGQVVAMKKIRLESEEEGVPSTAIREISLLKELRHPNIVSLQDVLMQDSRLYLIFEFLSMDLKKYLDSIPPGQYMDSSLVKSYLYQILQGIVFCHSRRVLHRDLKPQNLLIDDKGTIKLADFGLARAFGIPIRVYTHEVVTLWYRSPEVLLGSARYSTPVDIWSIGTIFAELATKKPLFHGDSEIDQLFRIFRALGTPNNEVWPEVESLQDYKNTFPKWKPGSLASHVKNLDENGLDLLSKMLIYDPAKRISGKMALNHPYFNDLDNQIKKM

Chain of Glycogen synthase kinase-3 beta (P49841 whole entry): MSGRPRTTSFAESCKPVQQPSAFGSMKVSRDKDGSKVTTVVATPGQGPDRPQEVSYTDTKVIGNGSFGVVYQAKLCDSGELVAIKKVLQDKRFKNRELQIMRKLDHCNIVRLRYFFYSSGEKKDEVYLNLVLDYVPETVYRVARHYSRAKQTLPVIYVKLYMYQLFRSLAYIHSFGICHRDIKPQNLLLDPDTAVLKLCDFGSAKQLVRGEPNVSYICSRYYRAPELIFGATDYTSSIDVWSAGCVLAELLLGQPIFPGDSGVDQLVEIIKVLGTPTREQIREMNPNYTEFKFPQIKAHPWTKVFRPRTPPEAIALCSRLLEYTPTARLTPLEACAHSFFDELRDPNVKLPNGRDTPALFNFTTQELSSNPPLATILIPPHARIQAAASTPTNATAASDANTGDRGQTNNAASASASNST
Chain of Cyclin-dependent kinase 5 (Q00535 whole entry): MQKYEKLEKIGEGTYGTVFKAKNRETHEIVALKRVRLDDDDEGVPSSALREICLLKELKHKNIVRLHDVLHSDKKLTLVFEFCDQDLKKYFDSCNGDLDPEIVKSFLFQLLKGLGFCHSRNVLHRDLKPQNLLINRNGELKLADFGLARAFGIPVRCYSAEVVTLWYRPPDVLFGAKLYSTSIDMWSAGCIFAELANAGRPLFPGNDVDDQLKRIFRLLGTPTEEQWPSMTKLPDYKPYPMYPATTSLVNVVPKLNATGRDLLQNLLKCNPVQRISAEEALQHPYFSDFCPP

In the case of `COc1cc(F)ccc1-c1ccnc(NC(=O)[C@@H]2CC[C@H](NC(C)=O)C2)c1`, the IC50 (as a rule, the concentration that gives 50% inhibition) was 10 nM in [1]; 1340 nM in assay [2]; 857 nM in [3]; greater than 5 µM in assay [4]; 913 nM in assay [5]; greater than 5 µM in [6]. The half-inhibitory concentration (IC50) in [7] is greater than 5 µM; in assay [8], 1450 nM; in assay [9] it was 99 nM; in assay [10], 1880 nM.
